Positions count from the first letter of the chain named. Entries after “also recorded” stand apart in the source; their conditions may differ.
How the values were obtained:
6XHIS-N98 N94A = target: T1, 6XHIS-N98 N94A (Homo sapiens, UniProt Q9H2C2, N94A); experiment: HTRF phospholipid lipid-binding assay, mutant; parameters: key: NC, no change; conditions: biotinylated lipid; NC = no change vs N98
T1 construct: made in house; host or cells: E. coli BL21
T1 sequence (Q9H2C2 1-98 N94A): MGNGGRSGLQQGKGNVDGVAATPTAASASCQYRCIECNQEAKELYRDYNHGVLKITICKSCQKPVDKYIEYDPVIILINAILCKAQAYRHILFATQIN
Text: (§1) An HTRF assay was developed for 6XHIS-ARV1-N98-lipid binding. HTRF measures analyte interactions through fluorescence resonance energy transfer technology and time-resolved measurements ([53]). The interaction between two molecules can be quantified through binding each individual molecule involved with a fluorescent label and then analyzing the transfer of energy between the initial donor fluorophore and the secondary acceptor fluorophore. Following excitation of the first fluorophore, transfer of energy can only occur if the molecules bound with the fluorescent tags are within proximity to each other.
(§2) Assays were plated in 384-well flat bottom microplates (Greiner Bio, catalog #784075-25). Proteins were diluted using binding buffer (20 mM Hepes buffer, pH 7.2, containing 0.1% BSA, and 0.01% Tween20) to a stock concentration of 0.75 μM, and biotinylated phospholipids were dispensed, dried under nitrogen gas, and resuspended in binding buffer to a stock concentration of 50 μM. The lipid stock solution was diluted by 1:2 for a series of 12 serial dilutions. For the assay, in sequential order, 6 μl of binding buffer was loaded into the plate in triplicate for each dilution of phospholipid. To this, 2 μl of 0.75 μM 6XHIS-ARV1-N98 was added, followed by 2 μl of biotinylated phospholipid. Immediately following each addition loaded into the plate, the plate was centrifuged for 1 min at 1000 rpm to bring the contents to the bottom of the well. Next, detection antibodies were mixed with detection buffer (20 mM Hepes buffer, pH 8.5, containing 0.01% BSA and 200 mM KF). Antibodies were a MAb anti-6XHIS Europium kryptate-conjugated D1 fluorescent antibody (Cisbio, #61HISKLA) and Streptavidin-conjugated d2 fluorescent antibody (Cisbio, #610SADLA). For each 1000 μl of detection buffer, 5 μl of each antibody was added just prior to loading 10 μl into each well. The plate was again centrifuged for 1 min at 1000 rpm and stored in a sealed container overnight, in the dark. Plates were read on a PerkinElmer EnVision Xcite Multilabel plate reader.
(§3) Curves were logarithmically transformed and normalized to a common scale before being fit with a nonlinear regression of the agonist against the normalized response. This generated half maximal effective concentration values (EC50; M) that could then be compared between different lipids. In the context of our study, EC50 values were defined as a measure of protein sensitivity to binding to a particular lipid within a dose response curve. For phospholipid competition analysis, IC50; M values were determined using nonlinear regression of the inhibitor against normalized response.

6XHIS-N98 N94Q = target: T2, 6XHIS-N98 N94Q (Homo sapiens, UniProt Q9H2C2, N94Q); experiment: HTRF phospholipid lipid-binding assay, mutant; parameters: key: NC, no change; conditions: biotinylated lipid; NC = no change vs N98
T2 construct: made in house; host or cells: E. coli BL21
T2 sequence (Q9H2C2 1-98 N94Q): T1 sequence (Q9H2C2 1-98 N94A) with A94Q
Text: as §1, §2, §3

GST-Annexin A2 = GST-Annexin A2 (Homo sapiens, UniProt P07355); experiment: Protein-lipid liposome binding assay (positive control protein); conditions: protein detected in final pellet
Sequence of GST-Annexin A2 (P07355 whole entry): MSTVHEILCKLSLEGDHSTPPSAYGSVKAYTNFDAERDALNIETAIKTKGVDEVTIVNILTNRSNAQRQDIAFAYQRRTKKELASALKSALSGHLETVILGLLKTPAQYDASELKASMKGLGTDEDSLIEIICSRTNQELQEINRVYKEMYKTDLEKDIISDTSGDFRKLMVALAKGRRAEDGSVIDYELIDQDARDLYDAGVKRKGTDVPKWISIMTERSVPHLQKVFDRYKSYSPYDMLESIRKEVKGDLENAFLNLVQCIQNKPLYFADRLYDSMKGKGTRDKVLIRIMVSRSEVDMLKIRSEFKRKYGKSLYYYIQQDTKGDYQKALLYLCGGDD
Protocol: (§4) Lyophilized lipids were reconstituted in chloroform at 10 mg/ml and stored in glass tubes with Teflon tops at −20 °C until use. One milliliter of 10 mg/ml stock was dried under a stream of nitrogen in a glass tube until a lipid cake/film was formed. The lipid cake was then rehydrated in BLT rehydration buffer (5 mM Tris/HCl, pH 7.4, containing 150 mM NaCl) to a concentration of 1 mg/ml. Lipid suspensions were subjected to three freeze/thaw cycles using a dry ice ethanol/[…] water bath to encapsulate the buffer and improve liposome formation. The suspension and lipid extruder were equilibrated to temperature for 10 min and liposomes were extruded using […] polycarbonate membranes (Avestin). Liposomes were made by mixing stock lipid PL (1 mg/ml) with PC (10 mg/ml).
(§5) Liposomes were serial diluted in floatation buffer (100 mM NaCl, 2 mM EDTA, pH 5.5) to a final concentration of 0.1 mg/ml. Nine hundred microliters of liposome solution was placed in clear ultracentrifuge tubes and mixed with 100 μl of 0.01 μg/ml of protein. The liposome/protein solution was incubated at room temperature for 1 h with occasional shaking. An initial 100 μl of liposome/protein solution (liposomes) was removed and the remaining 900 μl was centrifuged at 50,000g for 20 min at 4 °C. The pellet was resuspended in 800 μl of fresh floatation buffer, centrifuged as above, and 800 μl of supernatant was removed (wash 1). This was repeated a second time and again 800 μl of supernatant was removed (wash 2). The final pellet was resuspended in 100 μl of floatation buffer plus SDS treatment buffer (pellet). Thirty microliters of each fraction was run on a 15% SDS-PAGE gel and probed with an anti-GST monoclonal antibody at a 1:1500 dilution.

GST-ARV1-N98 C34/C37A = target: T3, GST-ARV1-N98 C34/C37A (Homo sapiens, UniProt Q9H2C2, C34A/C37A); experiment: Liposome binding assay, site-directed mutant; conditions: PC:PL, sulfatide or PI(4)P liposomes
T3 construct: Expresses amino-terminal 98 amino acids of ARV1; made in house; host or cells: E. coli BL21 (pGEX-4T1)
T3 sequence (Q9H2C2 1-98 C34A/C37A): T1 sequence (Q9H2C2 1-98 N94A) with C34A, C37A, A94N
Protocol: as §4
Sulfatide liposomes were generated as previously described ([94]). All lipids were resuspended in organic solvents as per manufacturer’s instructions. Liposomes were prepared with mixing PC:PE:cholesterol:sulfatides (1:1:1:4) and subsequently dried down by lyophilization to obtain lipid films. Lipids were hydrated in 20 mM Tris–HCL, pH 6.8, containing 100 mM NaCl at a concentration of 1 mg/ml.
PI(4)P liposomes were generated as described by Knodler et al. ([95]), with some modifications. Briefly, liposomes were generated at a lipid concentration of 10 mg/ml. Liposomes contained PC (60%), PI (30%), PE (8%), and PI(4)P (2%). Lipid solution was dried down and resuspended in liposome buffer (20 mM Hepes–HCL, pH 7.4, containing 1 mM EDTA and 50 mM potassium acetate). Liposomes were formed by sonication on ice.
as §5

Row | Bio-PL, EC50, M ± S.D. (6XHIS-N98 N94A) | Bio-PL, EC50, M ± S.D. (6XHIS-N98 N94Q) | binding to PC:PL liposomes (GST-Annexin A2) | Molecule | liposome binding (GST-ARV1-N98 C34/C37A)
1 | NC | NC | bound | CCCCC/C=C\C/C=C\CCCCCCCC(=O)OC[C@H](COP(=O)(O)OCC(O)COP(=O)(O)OC[C@@H](COC(=O)CCCCCCC/C=C\C/C=C\CCCCC)OC(=O)CCCCCCC/C=C\C/C=C\CCCCC)OC(=O)CCCCCCC/C=C\C/C=C\CCCCC (some centres unmarked) [CL, cardiolipin] | 
2 | reduced binding | reduced binding | bound | CCCCCCCCCCCCCCCC(=O)OC[C@H](COP(=O)(O)O)OC(=O)CCCCCCCCCCCCCCC [PA, phosphatidic acid] | bound
3 | NC | NC | very weakly | phosphatidylcholine [PC] | 
4 | NC | NC | Neither | phosphatidylethanolamine [PE] | 

Row | Molecule | Bio-PL, EC50, M ± S.D. (6XHIS-N98 N94A) | Bio-PL, EC50, M ± S.D. (6XHIS-N98 N94Q) | binding to PC:PL liposomes (GST-Annexin A2) | liposome binding (GST-ARV1-N98 C34/C37A)
5 | CCCCCCCC/C=C\CCCCCCCC(=O)OC[C@H](COP(=O)(O)OCC(O)CO)OC(=O)CCCCCCC/C=C\CCCCCCCC (some centres unmarked) [PG, phosphatidylglycerol] | reduced | NC | bound | not
6 | CCCCCCCCCCCCCCCCCC(=O)OC[C@H](COP(=O)(O)OC[C@H](N)C(=O)O)OC(=O)CCCCCCCCCCCCCCCCC [PS, phosphatidylserine] | NC | NC | bound | 
7 | CCCCCC(=O)O[C@H](COC(=O)CCCCCNC(=O)CCCC[C@@H]1SC[C@@H]2NC(=O)N[C@@H]21)COP(=O)(O)O[C@H]1[C@H](O)[C@@H](O)[C@H](OP(=O)(O)O)[C@@H](O)[C@H]1O [reference compound] | weakened; also recorded: reduction | weakened |  | bound

Source: paper PMC11952846, “The sterol-regulating human ARV1 binds cholesterol and phospholipids through its conserved ARV1 homology domain” (The Journal of Biological Chemistry, 2025)
